Paper PMC4201456, “Cytoxicity and Apoptotic Mechanism of Ruthenium(II) Amino Acid Complexes in Sarcoma-180 Tumor Cells” (PLoS ONE, 2014)

Key:
S180 tumor cells = test: MTT cell viability assay, S180 tumor cells; format: cell-based, murine; conditions: S180 tumor cell line, 48 h
Experimental: (§1) The murine sarcoma-180 tumor cells (S180) (ATCC# TIB-66) and normal murine fibroblast cells (L-929) (ATCC# CCL-1) were cultured in suspension in RPMI 1640 and DMEM media (Sigma Chemical Co., MO), respectively, supplemented with 10% fetal calf serum, 100 µg/mL penicillin, and 100 µg/mL streptomycin. The cultures were incubated in a humidified incubator (Thermo Scientific) at 37°C with 5% CO2.
(§2) The cytotoxic effects of the amino acid ruthenium complexes were evaluated using an MTT assay with S180 tumor cells and L929 normal cells as described previously. Briefly, 1.0×10^5 S180 cells and 2.0×10^4 L929 cells were plated in 96-well tissue culture plates and treated with different concentrations of amino acid ruthenium complexes (0.2–200 µM) for 48 h. After treatment, 10 µL of MTT (5 mg mL^−1) was added to each well, and the plates were incubated at 37°C for an additional 3 h. The purple formazan crystals were dissolved in 50 µL of SDS, and the absorbance was determined at 545 nm using a Stat Fax 2100 microplate reader (Awareness Technology, Palm City, FL, USA). The cell viability was calculated as follows: viability (%) = (absorbance of the treated wells)/(absorbance of the control wells) ×100. The IC50 (complex concentration (µM) that results in a 50% reduction in cellular viability) was obtained from dose-response curves using GraphPad Prism 4.02 for Windows (GraphPad Software, San Diego, CA, USA).

L929 normal cells = test: MTT cell viability assay, L929 normal cells; format: cell-based, murine; conditions: L929 normal cell line, 48 h
Experimental: as §1, §2

S180 cells = test: Mitochondrial membrane potential, JC-1 flow cytometry; format: cell-based, murine; conditions: 24 h; for percentage of cells with depolarized mitochondria: control 11.5%; for percentage of cells showing red fluorescence (upper-right quadrant): control 88.5%
Experimental: The effect of complex 2 on the mitochondrial membrane potential (ΔΨm) was measured using JC-1 dye (BD Biosciences) by flow cytometry according to the manufacturer's instructions. Briefly, 3.0×10^5 S180 cells were treated with complex 2 (40 µM and 60 µM) for 24 h. After incubation, the cells were harvested and washed with PBS. The cells were then incubated with JC-1 dye (BD Biosciences) for 15 min at 37°C in the dark. The stained cells were washed, resuspended in assay buffer, and immediately analyzed by flow cytometry. The data were analyzed using the Cell Quest software.

caspase 3 = test: Real-time RT-PCR gene expression, caspase 3; format: cell-based, murine; conditions: S180 cells, 40 µM, 6 h; normalized to β-actin
Experimental: (§3) The S180 cells were treated with 40 µM complex 2 for 6 h. Total RNA was extracted with Trizol reagent (Sigma-Aldrich, USA) following the manufacturer's protocol. Total RNA (2.0 µg) was used to produce complementary DNA (cDNA) with random primers (Applied Biosystems, USA) in a 20 µL reaction mixture according to the manufacturer's protocol.
(§4) Real-time PCR was carried out using a Line Gene K (Bioer Technology) instrument. Real-time PCR reactions were carried out in a 20 µL reaction mixture, including 2 µL of cDNA, 10 µL of SYBR Green PCR Master Mix (LGC Biotechnology, UK), and 2.0 µL of 400 nM forward and reverse primers. The PCR program was initiated at 95°C for 15 min followed by 40 cycles of 95°C for 15 s, 55°C for 15 s, and 72°C for 30 s. The data were analyzed according to the comparative Ct method and were normalized to the β-actin reference gene expression in each sample.

caspase 8 = test: Real-time RT-PCR gene expression, caspase 8; format: cell-based, murine; conditions: S180 cells, 40 µM, 6 h; p>0.05
Experimental: as §3, §4

p53 = test: Real-time RT-PCR gene expression, p53; format: cell-based, murine; conditions: S180 cells, 40 µM, 6 h; p>0.05
Experimental: as §3, §4

pBR322 plasmid DNA = test: Atomic force microscopy of plasmid DNA; format: binding; conditions: incubated 24 h at 37°C
Experimental: For the atomic force microscopy (TMAFM) experiment, the pBR322 plasmid was heated at 60°C for 10 minutes to obtain the OC form. The concentration of the stock solution was 1 mg/mL in HEPES buffer (4 mM HEPES (pH 7.4) and 2 mM MgCl2. Each sample contained 1 µL of pBR322 plasmid at a concentration of 0.25 µg/µL in a final volume of 40 µL. The amount of complex 2 added is expressed as ri. AFM samples were prepared by casting a 3 µL drop of test solution onto freshly cleaved muscovite green mica disks as the support. The drop was allowed to stand undisturbed for 3 minutes to favor the adsorbate-substrate interaction. Each DNA-laden disk was rinsed with Milli-Q water and was blown dry with clean compressed argon gas directed normal to the disk surface. The samples were stored over silica prior to AFM imaging. All AFM observations were made with a Nanoscope III Multimode AFM (Digital Instruments, Santa Barbara, CA). Nanocrystalline Si cantilevers ([…] in length) with an average spring constant of 50 N/m terminating in conical-shaped Si probe tips (10 nm apical radius and cone angle of 35°) were utilized. High-resolution topographic AFM images of 2×2 µm areas of different specimens were obtained in air at room temperature (relative humidity <40%). The AFM was operated in intermittent contact mode at a rate of 1–3 Hz.

`F[P-](F)(F)(F)(F)F.NCC(=O)[O-].[Ru+2].c1ccc(-c2ccccn2)nc1.c1ccc(P(CCCCP(c2ccccc2)c2ccccc2)c2ccccc2)cc1` [Complex 2, [Ru(gly)(bipy)(dppb)]PF6] was tested, and the IC50 (S180 tumor cells) was 31.2 ± 4.19 µM, the IC50 (L929 normal cells) was 51.6 ± 1.22 µM and the “percentage of cells with depolarized mitochondria” value (S180 cells; 40 µM) was 45.2%. For the same molecule, the “percentage of cells showing red fluorescence (upper-right quadrant)” value (S180 cells; 40 µM) was 54.3%, the “percentage of cells with depolarized mitochondria” value (S180 cells; 60 µM) was 52.6% and the “percentage of cells showing red fluorescence (upper-right quadrant)” value (S180 cells; 60 µM) was 47.1%. The “expression level of caspase 3 compared to control” value (caspase 3) was 2.55 fold, the “expression level of caspase 8 compared with control” value (caspase 8) was “remained unchanged” and the “expression level of p53 compared with control” value (p53) was “remained unchanged”. The “interaction with pBR322 plasmid DNA (AFM images)” value (pBR322 plasmid DNA) was “did not covalently bind to DNA bases or intercalate between bases”.
